Data reported in patent US20250213586A1, “STAT6 INHIBITORS AND USES THEREOF” (Kymera Therapeutics, Inc., priority 2024, published 2025).

Assays:
STAT6 [1] = biological target: T1, STAT6 (Homo sapiens, UniProt P42226); experiment: Phosphorylated STAT6 (pSTAT6) flow cytometry assay in human PBMC, IL-4 stimulated; type: cell-based; design: endogenous in cells; host or cells: human PBMC (CD19+ B cells), IL-4 stimulated; conditions: 1 hour compound, 1 ng/ml IL-4 15 minutes, pSTAT6 in CD19+ B cells, read-out: STAT6 IL4 pSTAT6 assay in PBMC: Average IC50
T1 sequence (P42226 1-847): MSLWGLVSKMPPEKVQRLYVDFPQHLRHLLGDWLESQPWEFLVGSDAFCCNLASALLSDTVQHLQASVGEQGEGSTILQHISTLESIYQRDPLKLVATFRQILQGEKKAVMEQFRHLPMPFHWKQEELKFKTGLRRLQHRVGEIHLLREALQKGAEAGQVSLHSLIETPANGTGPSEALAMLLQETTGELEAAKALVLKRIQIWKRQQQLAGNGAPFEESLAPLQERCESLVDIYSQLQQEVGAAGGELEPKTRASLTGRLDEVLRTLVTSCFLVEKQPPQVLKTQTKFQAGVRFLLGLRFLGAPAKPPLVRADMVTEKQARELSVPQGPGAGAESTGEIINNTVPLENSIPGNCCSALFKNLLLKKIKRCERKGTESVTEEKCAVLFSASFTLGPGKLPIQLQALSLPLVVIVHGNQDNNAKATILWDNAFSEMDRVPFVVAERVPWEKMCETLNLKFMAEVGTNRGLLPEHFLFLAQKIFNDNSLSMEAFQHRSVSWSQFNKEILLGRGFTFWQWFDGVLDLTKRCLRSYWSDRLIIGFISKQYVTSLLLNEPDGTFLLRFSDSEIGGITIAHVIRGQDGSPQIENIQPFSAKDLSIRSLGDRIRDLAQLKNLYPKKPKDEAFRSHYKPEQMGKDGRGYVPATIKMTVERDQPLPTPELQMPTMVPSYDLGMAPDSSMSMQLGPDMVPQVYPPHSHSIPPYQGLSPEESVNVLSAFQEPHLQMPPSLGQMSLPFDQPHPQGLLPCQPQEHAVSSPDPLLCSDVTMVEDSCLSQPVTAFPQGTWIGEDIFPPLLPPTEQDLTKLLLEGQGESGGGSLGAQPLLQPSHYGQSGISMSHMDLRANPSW
Description: Example 2. Phosphorylated STAT6 (pSTAT6) Flow Cytometry Assay in Human PBMC
Phosphorylation of STAT6 in human PBMC was quantitatively measured using flow cytometry technology. Human PBMC were seeded in 96-well plates with a density of 0.3 to 0.5 million cells per well in 100 μl fresh media. Compounds were then added to the assay plates with a final top concentration of up to […] in a 1:3 dilution series with total of 9 doses. The assay plates were incubated for 1 hour at 37° C. under 5% CO2. The cells were then stimulated with 1 ng/ml of IL-4 (R&D Systems, Cat #6507-IL) for 15 minutes, followed by fixation for 30 minutes at 4° C. Cells were spun down at 350 g for 5 minutes. The supernatant was removed and cells were washed once with FACS buffer. Cells were permeabilized with 90% MeOH/H2O for 30 minutes at 4° C., followed by one wash with FACS buffer. Non-specific binding were blocked with human Fc for 1 hour at 4° C., followed by one wash with FACS buffer. AF488 conjugated pSTAT6 antibody (BD Biosciences, Cat #612600, 1:100 dilution) and PE conjugated CD19 antibody (BD Biosciences, Cat #341103, 1:50 dilution) diluted in 100 μl FACS buffer was added to each well with overnight incubation at 4° C. Cells were then washed once with FACS buffer and resuspended in 200 μl of FACS buffer for flow cytometry to quantify pSTAT6 in CD19+ B cells. The data was analyzed by GraphPad Prism and the dose dependent pSTAT6 inhibition was fit using the four-parameter inhibitor vs. response nonlinear regression.

[2] = biological target: T2, biotinylated truncated STAT6 (123-632)-avi (Homo sapiens, UniProt P42226); experiment: biochemical
T2 sequence (P42226 123-632 limits assumed): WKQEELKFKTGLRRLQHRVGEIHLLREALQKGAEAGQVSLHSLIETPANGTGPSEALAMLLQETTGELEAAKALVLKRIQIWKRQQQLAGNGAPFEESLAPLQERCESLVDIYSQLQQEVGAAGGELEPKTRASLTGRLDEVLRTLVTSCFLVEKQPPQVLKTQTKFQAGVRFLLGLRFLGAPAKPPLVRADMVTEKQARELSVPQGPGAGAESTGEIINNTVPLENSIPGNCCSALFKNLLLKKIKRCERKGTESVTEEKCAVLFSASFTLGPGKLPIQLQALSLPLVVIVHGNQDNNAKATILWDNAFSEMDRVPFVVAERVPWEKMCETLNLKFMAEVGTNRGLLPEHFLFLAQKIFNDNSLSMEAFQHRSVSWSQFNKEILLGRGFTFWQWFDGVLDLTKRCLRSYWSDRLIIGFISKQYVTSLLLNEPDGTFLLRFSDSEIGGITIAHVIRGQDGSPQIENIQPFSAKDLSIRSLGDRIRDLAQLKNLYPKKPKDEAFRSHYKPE

STAT6 [3] = biological target: T1, STAT6; experiment: Phosphorylated STAT6 (pSTAT6) flow cytometry assay in human A549 cells; type: cell-based; design: endogenous in cells; conditions: read-out: STAT6 IL4 pSTAT6 assay in A549 cells: Average IC50
Description: Example 3. Phosphorylated STAT6 (pSTAT6) Flow Cytometry Assay in Human A549 Cells
Phosphorylation of STAT6 in human A549 cells was quantitatively measured using flow cytometry technology.

| Structure (SMILES) | IC50 (STAT6 [1]) | IC50 [2] | IC50 (STAT6 [3]) |
| --- | --- | --- | --- |
| Cn1cccc(-c2ccc([C@H]3CCCN(C(=O)CCn4ccnn4)C3)cc2F)c1=O (single isomer, unassigned) [Compound I-7] | > 100 µM | 10 to 100 µM |  |
| Cn1cccc(-c2ccc([C@@H]3CCCN(C(=O)CCn4ccnn4)C3)cc2F)c1=O (single isomer, unassigned) [Compound I-320] | > 100 µM | 10 to 100 µM |  |
| O=C(CCn1ccnn1)N1CCC[C@@H](c2ccc(-n3ccccc3=O)c(F)c2)C1 (single isomer, unassigned) [Compound I-1293] |  | 10 to 100 µM |  |
| O=C(CCn1ccnn1)N1CCC[C@H](c2ccc(-n3ccccc3=O)c(F)c2)C1 (single isomer, unassigned) [Compound I-1294] |  | 10 to 100 µM |  |
| CN1CCN(c2ccc(C3=CCCN(C(=O)CCn4ccnn4)C3)cc2Cl)CC1=O [Compound I-6] | 10 to 100 µM | 10 to 100 µM |  |
| CN(CC1CCN(c2ccc(-n3ccccc3=O)cc2F)CC1)C(Cc1cccnn1)c1ccc(CO)cc1 (stereo not drawn) [Compound I-121] | > 100 µM | > 100 µM |  |
| Cc1cscc1-c1cc(CO)ccc1C(=O)N(C)CC1CCN(c2ccc(-n3ccccc3=O)cc2F)CC1 [Compound I-131] | > 100 µM | 10 to 100 µM |  |
| CN(CC1CCN(c2ccc(-n3ccccc3=O)cc2F)CC1)C(=O)c1ccc(CO)cc1-c1ccsc1 [Compound I-164] | > 100 µM | 1 to 10 µM |  |
| CN(CC1CCN(c2ccc(-n3ccccc3=O)cc2)CC1)C(=O)c1ccc(CO)cc1 [Compound I-183] | > 100 µM | 10 to 100 µM |  |
| CN(C)C(=O)c1ccc(C2=CCCN(C(=O)CCn3ccnn3)C2)cc1C(N)=O [Compound I-211] | > 100 µM | 10 to 100 µM |  |
| CN(C)C(=O)c1ccc(C2=CCCN(C(=O)CCn3ccnn3)C2)cc1O [Compound I-218] | > 100 µM | 10 to 100 µM |  |
| CN(C)C(=O)c1ccc(C2=CCCN(C(=O)CC3CNc4ccccc4O3)C2)c(C#N)c1 (stereo not drawn) [Compound I-223] | > 100 µM | 10 to 100 µM |  |
| CN(C)C(=O)c1ccc(C2=CCCN(C(=O)CCn3ccnn3)C2)cc1C#N [Compound I-230] | > 100 µM | > 100 µM |  |
| CN(C)C(=O)c1ccc(N2CCC(CN(C)C(=O)c3ccc(CO)cc3)CC2)c(F)c1 [Compound I-238] | > 100 µM | 10 to 100 µM |  |
| CN(C)C(=O)c1ccc2ccc(C3=CCCN(C(=O)CCn4ccnn4)C3)cc2c1 [Compound I-242] | > 100 µM | 10 to 100 µM |  |
| COC(=O)COc1cc(C2=CCCN(C(=O)CCn3ccnn3)C2)ccc1C(=O)N(C)C [Compound I-250] | > 100 µM | 10 to 100 µM |  |
| CN(C)C(=O)c1ccc(C2=CCCN(C(=O)CCn3ccnn3)C2)c(O)c1 [Compound I-253] | > 100 µM | 1 to 10 µM |  |
| CN(C)C(=O)c1cc2cc(NC(=O)CCCn3ccnn3)ccc2o1 [Compound I-258] | > 100 µM | 10 to 100 µM |  |

| Structure (SMILES) | IC50 (STAT6 [1]) | IC50 [2] | IC50 (STAT6 [3]) |
| --- | --- | --- | --- |
| COc1cc(C(=O)N(C)C)ccc1C1=CCCN(C(=O)CCn2ccnn2)C1 [Compound I-260] | > 100 µM | 1 to 10 µM |  |
| CN(C)C(=O)c1cc2cc(NC(=O)CCn3ccnn3)ccc2o1 [Compound I-262] | > 100 µM | 10 to 100 µM |  |
| CN(C)C(=O)c1ccc(C2=CCCN(C(=O)CCn3ccnn3)C2)cc1 [Compound I-288] | > 100 µM | 1 to 10 µM |  |
| CN(C)C(=O)c1cc2cc(C3CCN(C(=O)CCn4ccnn4)C3)ccc2o1 (stereo not drawn) [Compound I-303] | > 100 µM | 10 to 100 µM |  |
| COc1ccccc1-c1cc(Cc2ccccn2)c(F)c(C2=CCCN(C(=O)CCn3ccnn3)C2)c1 [Compound I-1102] |  | 0.1 to 1 µM | 0.1 to 1 µM |
| CCc1ccc(-c2cc(C(=O)N3Cc4cnn(CC)c4C3)cc3cc(-c4cccc(C(=O)O)c4C)n(CC4CC4)c23)c(C)n1 [Compound I-1240] |  | 1 to 10 µM |  |
| CCc1ccc(-c2cc(C(=O)N3Cc4cnn(CC)c4C3)cc3cc(-c4cc(C(=O)O)ccc4C)n(CC4CC4)c23)c(C)n1 [Compound I-1246] |  | 1 to 10 µM |  |
| CNC(=O)c1ccc2c(c1)nc(-c1nc3ccc(F)cc3[nH]1)n2Cc1ccc(CN2CCOCC2)o1 [Compound I-1271] |  | 10 to 100 µM |  |
| CNC(=O)c1ccc2c(c1)nc(-c1cccn1C)n2-c1ccccc1OC(F)F [Compound I-1272] |  | 10 to 100 µM |  |
| CN(CC1CCN(c2ccc(-n3ccccc3=O)cc2F)CC1)C(=O)c1ccc(OC(F)F)cc1 [Compound I-1273] |  | 10 to 100 µM |  |
| CN(C)C(=O)c1cnc(-c2ccc(NC(=O)CCn3ccnn3)cc2)[nH]1 [Compound I-1295] |  | 10 to 100 µM |  |
| COc1ccccc1-c1cc(-n2ccccc2=O)cc(F)c1N1CCC(CN(C)C(=O)c2ccc(CO)cc2)CC1 [Compound I-1296] |  | 10 to 100 µM |  |
| CN(C)C(=O)c1cc2c([nH]1)CN(C1CCCN(C(=O)CCn3ccnn3)C1)CC2 (stereo not drawn) [Compound I-1297] |  | 10 to 100 µM |  |
| CN(C)C(=O)c1ccc(C2=CCCN(C(=O)CC3Oc4ccccc4NC3=O)C2)c(OC(F)(F)F)c1 (stereo not drawn) [Compound I-1298] |  | 10 to 100 µM |  |
| CN(C)C(=O)c1cc2ccc(-c3cnc(CC(=O)Nc4cccc(C(N)=O)c4)s3)c(F)c2[nH]1 [Compound I-1323] |  | 0.1 to 1 µM |  |
| CN(C)C(=O)c1cc2ccc(C3CCCCN(C(=O)Nc4cccc(C(N)=O)c4)C3)c(F)c2[nH]1 (stereo not drawn) [Compound I-1325] |  | 10 to 100 µM |  |
| COc1ccccc1-c1cc(-c2cccc(C(=O)N(C)C)c2)c(F)c2[nH]c(C(=O)N(C)C)cc12 [Compound I-1583] |  | 1 to 10 µM |  |
| O=C(CCn1ccnn1)N1CCC=C(c2ccc(-n3ccccc3=O)cc2)C1 [Compound I-1625] |  | 1 to 10 µM |  |
